Source: the supplement of paper PMC11061612

Assays:
Assay in all cases: combination Emax (second highest fraction inhibited in the dose matrix, 72 h); higher = more inhibition; extreme values may be limits of the assay
[1] = tested on: CCK-81 (Colorectal Carcinoma)
In short: (§1)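 Cell lines in DMEM/F12 or RPMI with 10% FBS were plated in 1536-well plates, held 24 hours at 37°C, 5% CO2, then given two-drug dose matrices for 72 hours (DMSO typically 0.2%). Viability was read by CellTiter-Glo 2.0 luminescence and scaled as inhibition from 0 (vehicle wells) to 1 (blank wells). Combination Emax is the second-highest inhibition in the matrix; Bliss excess is observed combination effect minus expected EA + EB − EA·EB, EA and EB being single-agent effects.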

[2] = tested on: COLO-320-HSR (Colorectal Carcinoma)
In short: as §1

[3] = tested on: COLO-824 (Breast Carcinoma)
In short: as §1

[4] = tested on: ECC10 (Gastric Carcinoma)
In short: as §1

GI-ME-N (Neuroblastoma) = tested on: GI-ME-N (Neuroblastoma)
In short: as §1

[5] = tested on: KARPAS-422 (B-Cell Non-Hodgkin's Lymphoma)
In short: as §1

LN-405 (Glioblastoma) = tested on: LN-405 (Glioblastoma)
In short: as §1

[6] = tested on: MDST8 (Colorectal Carcinoma)
In short: as §1

[7] = tested on: NCI-H1581 (Non-Small Cell Lung Carcinoma)
In short: as §1

[8] = tested on: NCI-H1650 (Lung Adenocarcinoma)
In short: as §1

[9] = tested on: NCI-H1666 (Lung Adenocarcinoma)
In short: as §1

[10] = tested on: NCI-H1693 (Lung Adenocarcinoma)
In short: as §1

[11] = tested on: NCI-H2066 (Squamous Cell Lung Carcinoma)
In short: as §1

[12] = tested on: NCI-H2141 (Small Cell Lung Carcinoma)
In short: as §1

NCI-H2591 (Mesothelioma) = tested on: NCI-H2591 (Mesothelioma)
In short: as §1

[13] = tested on: NCI-H64 (Small Cell Lung Carcinoma)
In short: as §1

PA-1 (Ovarian Carcinoma) = tested on: PA-1 (Ovarian Carcinoma)
In short: as §1

[14] = tested on: SK-MES-1 (Squamous Cell Lung Carcinoma)
In short: as §1

[15] = tested on: SK-MG-1 (Low Grade Glioma)
In short: as §1

U-2-OS (Osteosarcoma) = tested on: U-2-OS (Osteosarcoma)
In short: as §1

Structure (SMILES) | combination Emax [1] | combination Emax [2] | combination Emax [3] | combination Emax [4] | combination Emax (GI-ME-N (Neuroblastoma)) | combination Emax [5] | combination Emax (LN-405 (Glioblastoma)) | combination Emax [6] | combination Emax [7] | combination Emax [8] | combination Emax [9] | combination Emax [10] | combination Emax [11] | combination Emax [12] | combination Emax (NCI-H2591 (Mesothelioma)) | combination Emax [13] | combination Emax (PA-1 (Ovarian Carcinoma)) | combination Emax [14] | combination Emax [15] | combination Emax (U-2-OS (Osteosarcoma))
Cc1c2c(nn1C)CSCc1cc(n(C)n1)CSc1cc(c3ccccc3c1)OCCCc1c(C(=O)O)n(C)c3c-2c(Cl)ccc13 [AZD5991] + CC1(C)CCC(CN2CCN(c3ccc(C(=O)NS(=O)(=O)c4ccc(NCC5CCOCC5)c([N+](=O)[O-])c4)c(Oc4cnc5[nH]ccc5c4)c3)CC2)=C(c2ccc(Cl)cc2)C1 [Venetoclax] (first compound max 1 µM, 7x7, partner max 1 µM) | 0.871 | 0.841 | 0.997 | 1 | 0.354 | 1 | 0.425 | 0.228 | 0.968 | 0.184 | 0.242 | 0.143 | 0.169 | 0.659 | 0.154 | 0.359 | 0.964 | 0.146 | 0.178 | 0.271
Cc1c2c(nn1C)CSCc1cc(n(C)n1)CSc1cc(c3ccccc3c1)OCCCc1c(C(=O)O)n(C)c3c-2c(Cl)ccc13 [AZD5991] + CCN(CCO)CCCOc1ccc2c(Nc3cc(CC(=O)Nc4cccc(F)c4)[nH]n3)ncnc2c1 [AZD2811] (first compound max 1 µM, 7x7, partner max 1 µM) | 0.875 | 0.827 | 0.815 | 0.957 | 0.354 | 0.981 | 0.437 | 0.362 | 1 | 0.269 | 0.334 | 0.211 | 0.304 | 0.428 | 0.265 | 0.788 | 0.932 | 0.408 | 0.465 | 0.307
Cc1c2c(nn1C)CSCc1cc(n(C)n1)CSc1cc(c3ccccc3c1)OCCCc1c(C(=O)O)n(C)c3c-2c(Cl)ccc13 [AZD5991] + CN(C)CCCOc1ccc(-c2ccc3ncc4c(c3c2)n(C2CCOCC2)c(=O)n4C)cn1 [AZD0156] (first compound max 1 µM, 7x7, partner max 1 µM) | 0.88 | 0.888 | 0.411 | 0.66 | 0.307 | 0.982 | 0.376 | 0.242 | 0.976 | 0.2 | 0.238 | 0.211 | 0.234 | 0.265 | 0.185 | 0.346 | 0.855 | 0.196 | 0.539 | 0.263
Cc1c2c(nn1C)CSCc1cc(n(C)n1)CSc1cc(c3ccccc3c1)OCCCc1c(C(=O)O)n(C)c3c-2c(Cl)ccc13 [AZD5991] + C[C@@H]1COCCN1C2=NC(=NC(=C2)C3(CC3)[S@](=N)(=O)C)C4=C5C=CNC5=NC=C4 [AZD6738] (first compound max 1 µM, 7x7, partner max 10 µM) | 0.979 | 0.97 | 0.868 | 0.766 | 0.431 | 1 | 0.668 | 0.78 | 1 | 0.516 | 0.322 | 0.432 | 0.359 | 0.628 | 0.392 | 0.905 | 0.967 | 0.785 | 0.566 | 0.599
Cc1c2c(nn1C)CSCc1cc(n(C)n1)CSc1cc(c3ccccc3c1)OCCCc1c(C(=O)O)n(C)c3c-2c(Cl)ccc13 [AZD5991] + C[C@@H](Nc1cc(F)cc(F)c1)c1cc(C(=O)N(C)C)cc2c(=O)cc(N3CCOCC3)oc12 [AZD8186] (first compound max 1 µM, 7x7, partner max 3 µM) | 0.899 | 0.907 | 0.441 | 0.721 | 0.301 | 0.94 | 0.572 | 0.265 | 0.991 | 0.297 | 0.386 | 0.236 | 0.343 | 0.3 | 0.196 | 0.406 | 0.964 | 0.381 | 0.648 | 0.238
Cc1c2c(nn1C)CSCc1cc(n(C)n1)CSc1cc(c3ccccc3c1)OCCCc1c(C(=O)O)n(C)c3c-2c(Cl)ccc13 [AZD5991] + Cc1cc2ncnn2cc1Nc1ncc2c(n1)n(C1CCOCC1)c(=O)n2C [AZD7648] (first compound max 1 µM, 7x7, partner max 10 µM) | 0.933 | 0.808 | 0.364 | 0.669 | 0.228 | 1 | 0.37 | 0.34 | 1 | 0.168 | 0.246 | 0.256 | 0.299 | 0.307 | 0.305 | 0.341 | 0.906 | 0.223 | 0.374 | 0.261
Cc1c2c(nn1C)CSCc1cc(n(C)n1)CSc1cc(c3ccccc3c1)OCCCc1c(C(=O)O)n(C)c3c-2c(Cl)ccc13 [AZD5991] + Cn1cnc2c(F)c(Nc3ccc(Br)cc3Cl)c(C(=O)NOCCO)cc21 [Selumetinib] (first compound max 1 µM, 7x7, partner max 3 µM) | 0.947 | 0.801 | 0.406 | 0.669 | 0.421 | 0.998 | 0.383 | 0.746 | 0.991 | 0.16 | 0.736 | 0.319 | 0.258 | 0.22 | 0.27 | 0.295 | 0.865 | 0.435 | 0.339 | 0.331
Cc1cc2ncnn2cc1Nc1ncc2c(n1)n(C1CCOCC1)c(=O)n2C [AZD7648] + C=CCn1c(=O)c2cnc(Nc3ccc(N4CCN(C)CC4)cc3)nc2n1-c1cccc(C(C)(C)O)n1 [AZD1775] (first compound max 10 µM, partner max 1 µM) | 0.833 | 0.744 | 0.658 | 0.797 | 0.393 | 0.784 | 0.281 | 0.513 | 0.379 | 0.417 | 0.357 | 0.323 | 0.339 | 0.647 | 0.368 | 0.89 | 0.706 | 0.711 | 0.594 | 0.614
Cc1cc2ncnn2cc1Nc1ncc2c(n1)n(C1CCOCC1)c(=O)n2C [AZD7648] + CCN(CCO)CCCOc1ccc2c(Nc3cc(CC(=O)Nc4cccc(F)c4)[nH]n3)ncnc2c1 [AZD2811] (first compound max 10 µM, 7x7, partner max 1 µM) | 0.291 | 0.209 | 0.762 | 0.908 | 0.207 | 0.556 | 0.186 | 0.485 | 0.499 | 0.287 | 0.381 | 0.263 | 0.356 | 0.358 | 0.37 | 0.596 | 0.315 | 0.373 | 0.461 | 0.229
Cc1cc2ncnn2cc1Nc1ncc2c(n1)n(C1CCOCC1)c(=O)n2C [AZD7648] + CN(C)CCCOc1ccc(-c2ccc3ncc4c(c3c2)n(C2CCOCC2)c(=O)n4C)cn1 [AZD0156] (first compound max 10 µM, 7x7, partner max 1 µM) | 0.299 | 0.27 | 0.283 | 0.323 | 0.157 | 0.479 | 0.164 | 0.439 | 0.369 | 0.25 | 0.431 | 0.222 | 0.321 | 0.229 | 0.334 | 0.279 | 0.239 | 0.28 | 0.359 | 0.176
Cc1cc2ncnn2cc1Nc1ncc2c(n1)n(C1CCOCC1)c(=O)n2C [AZD7648] + C[C@@H]1COCCN1C2=NC(=NC(=C2)C3(CC3)[S@](=N)(=O)C)C4=C5C=CNC5=NC=C4 [AZD6738] (first compound max 10 µM, 7x7, partner max 10 µM) | 0.9 | 0.616 | 0.738 | 0.421 | 0.59 | 0.639 | 0.43 | 0.775 | 0.471 | 0.324 | 0.354 | 0.294 | 0.379 | 0.578 | 0.39 | 0.811 | 0.75 | 0.72 | 0.584 | 0.675
Cc1cc2ncnn2cc1Nc1ncc2c(n1)n(C1CCOCC1)c(=O)n2C [AZD7648] + O=C(c1cc(Cc2n[nH]c(=O)c3ccccc23)ccc1F)N1CCN(C(=O)C2CC2)CC1 [Olaparib] (first compound max 10 µM, 7x7, partner max 10 µM) | 0.162 | 0.073 | 0.279 | 0.158 | 0.141 | 0.55 | 0.183 | 0.289 | 0.168 | 0.0772 | 0.0994 | 0.172 | 0.295 | 0.218 | 0.248 | 0.134 | 0.374 | 0.177 | 0.238 | 0.118
NC1(C(=O)N[C@@H](CCO)c2ccc(Cl)cc2)CCN(c2ncnc3[nH]ccc23)CC1 [Capivasertib] + CC(=O)c1c(C)c2cnc(Nc3ccc(N4CCNCC4)cn3)nc2n(C2CCCC2)c1=O [Palbociclib] (first compound max 10 µM, 7x7, partner max 10 µM) | 0.337 | 0.263 | 0.612 | 0.506 | 0.422 | 0.771 | 0.577 | 0.656 | 0.373 | 0.351 | 0.382 | 0.485 | 0.507 | 0.299 | 0.364 | 0.332 | 0.909 | 0.5 | 0.62 | 0.408
